Reference: patent US20110152267A1, “Compositions and Methods for Treating Hyperproliferative Disorders” (Texas Tech University System, priority 2009, published 2011)

Columns and labels:
Assay type in all cases: cell-based, human
[1] = test system: PANC-1 pancreatic adenocarcinoma cell line; test: DIMSCAN cytotoxicity, fenretinide + L-threo-sphinganines 3:1 (Example B18)
Protocol: (§1) Cytotoxicity Assay—Once again, cytotoxicity is determined using the DIMSCAN assay system (R. Proffitt et al., Cytometry 24, 204-213 (1996); T. Frgala et al., Mol Cancer Ther. 6:886-97, 2007). The system employs digital imaging microscopy to quantify viable cells, which selectively accumulate fluorescein diacetate to become brightly fluorescent. The system is capable of measuring cytotoxicity over a 4-5 log dynamic range by quenching the residual fluorescence of dead and dying cells with eosin Y and quantifying the total fluorescence of viable cells using digital thresholding. Measured fluorescence is directly proportionate to the number of viable cells. A comparison of the total fluorescence of a drug-treated cell population to the fluorescence of a similar number of untreated cells yields a survival fraction. In brief, 2000 to 10,000 cells/well (depending on size and growth rates) are replicate plated into 60 wells of a 96-well tissue culture plate in 0.1 mL of whole medium and allowed to attach overnight. Drug(s) are then added in 0.05 mL of whole medium to the final concentrations indicated. Drugs (fenretinide, and various chain length L-threo-sphinganines) were tested both as single agents and in a 3:1 ratio of fenretinide:sphinganine. C18-L-threo-sphinganine, or “safingol,” was also tested and results shown for reference. There are 12 wells treated per drug concentration. Twelve wells receive drug vehicle-only to the appropriate final concentration and serve as controls for the plate. Cells are incubated for 96 hours at 37° C. in ambient air with 5% CO2. Fluorescein diacetate is then added to each well in 0.05 mL media to a final concentration of 8 microgram/mL. Cells are incubated for a further 15 minutes at 37° C. and 0.03 mL of 0.5% eosin Y is added to each well. Total fluorescence of viable cells is then measured by digital imaging microscopy. Results were graphed as the ratio of the fluoresecence of drug-treated wells to non-drug treated control wells (i.e., Survival Fraction). All tests were performed at least twice. Representative results are shown.
(§2) The Combination Index (CI) is a term to describe mathematical modeling of the pharmacologic effects on cytotoxicity (cell death) of two drugs in combination based. Cytotoxic “synergy” is defined as a cell death affect which is greater than would be expected from a simple product of the single agent cytotoxicities alone (i.e. an “additive” effect). By Chou-Talalay analysis, a CI<0.9 on a Fraction Affected (“Fa”, i.e. fraction of cells killed) indicates synergy, with smaller numbers indicating greater synergy; a CI of 0.9-1.1 signifies an additive or near-additive effect; and a CI>1.1 means the drug combination is antagonistic.
Fenretinide and L-threo-sphinganines tested in human pancreatic adenocarcinoma (pancreas cancer) cell line, PANC-1.

[2] = test system: HT-29 colorectal adenocarcinoma cell line; test: DIMSCAN cytotoxicity, fenretinide + L-threo-sphinganines 3:1 (Example B10); details: 96 h
Protocol: as §1, §2
Fenretinide and L-threo-sphinganines tested in human colorectal adenocarcinoma (colon cancer) cell line, HT-29.

[3] = test system: SJ-GBM2 Glioblastoma multiforme cell line; test: DIMSCAN cytotoxicity, fenretinide + L-threo-sphinganines 3:1 (Example B7); design: key to CI (Combination Index): Chou-Talalay CI: <0.9 synergy, 0.9-1.1 additive, >1.1 antagonism; details: 96 h
Protocol: as §1, §2
Fenretinide and L-threo-sphinganines tested in human Glioblastoma multiforme (brain cancer) cell line, SJ-GBM2.

[4] = test system: A-2058 melanoma cell line; test: DIMSCAN cytotoxicity, fenretinide + L-threo-sphinganines 3:1 (Example B11); details: 96 h
Protocol: as §1, §2
Fenretinide and L-threo-sphinganines tested in human melanoma (skin cancer) cell line, A-2058.

[5] = test system: T98G Glioblastoma multiforme cell line; test: DIMSCAN cytotoxicity, fenretinide + L-threo-sphinganines 3:1 (Example B6); details: 96 h
Protocol: as §1, §2
Fenretinide and L-threo-sphinganines tested in human Glioblastoma multiforme (brain cancer) cell line, T98G.

[6] = test system: U-266 Multiple Myeloma cell line; test: DIMSCAN cytotoxicity, fenretinide + L-threo-sphinganines 3:1 (Example B3); details: 96 h
Protocol: as §1, §2
Fenretinide and L-threo-sphinganines tested in human Multiple Myeloma (a cancer of the blood and bone marrow) cell line, U-266.

[7] = test system: U-118 Glioblastoma cell line; test: DIMSCAN cytotoxicity, fenretinide + L-threo-sphinganines 3:1 (Example B5); design: key to CI (Combination Index): CI<0.9 synergy, 0.9-1.1 additive, >1.1 antagonistic; details: U-118 MG, 96 h
Protocol: as §1, §2
Fenretinide and L-threo-sphinganines tested in human Glioblastoma (brain cancer) cell line, U-118.

[8] = test system: PC-3 prostate adenocarcinoma cell line; test: DIMSCAN cytotoxicity, fenretinide + L-threo-sphinganines 3:1 (Example B17)
Protocol: as §1, §2
Fenretinide and L-threo-sphinganines tested in human prostate adenocarcinoma (prostate cancer) cell line, PC-3.

[9] = 4-HPR 1.5 μM + L-threo-sphinganine 0.5 μM
[10] = 4-HPR 3 μM + L-threo-sphinganine 1 μM
[11] = 4-HPR 6 μM + L-threo-sphinganine 2 μM
[12] = 4-HPR 9 μM + L-threo-sphinganine 3 μM

CCCCCCCCCCCCCCC[C@H](O)[C@@H](N)CO [C18, (2S,3S)-2-amino-1,3-octadecanediol, reference compound]
CI [1, 9]: 2.5 | Fa [1, 9]: 0.136 | CI [1, 10]: 2.1 | Fa [1, 10]: 0.336 | CI [1, 11]: 1.4 | Fa [1, 11]: 0.620 | CI [1, 12]: 1.5 | Fa [1, 12]: 0.700 | CI (Combination Index) [2, 9]: 0.9 | Fa (fraction affected) [2, 9]: 0.243 | CI (Combination Index) [2, 10]: 0.7 | Fa (fraction affected) [2, 10]: 0.756 | CI (Combination Index) [2, 11]: 0.5 | Fa (fraction affected) [2, 11]: 0.983 | CI (Combination Index) [2, 12]: 0.3 | Fa (fraction affected) [2, 12]: 0.999 | CI (Combination Index) [3, 9]: >>1 | Fa (fraction affected) [3, 9]: 0.001 | CI (Combination Index) [3, 10]: 0.6 | Fa (fraction affected) [3, 10]: 0.712 | CI (Combination Index) [3, 11]: 0.6 | Fa (fraction affected) [3, 11]: 0.987 | CI (Combination Index) [3, 12]: 0.7 | Fa (fraction affected) [3, 12]: 0.999 | CI (Combination Index) [4, 9]: >1 | Fa (fraction affected) [4, 9]: 0.001 | CI (Combination Index) [4, 10]: >1 | Fa (fraction affected) [4, 10]: 0.01 | CI (Combination Index) [4, 11]: >1 | Fa (fraction affected) [4, 11]: 0.099 | CI (Combination Index) [4, 12]: 1.22 | Fa (fraction affected) [4, 12]: 0.815 | CI (Combination Index) [5, 9]: 0.786 | Fa (fraction affected) [5, 9]: 0.657 | CI (Combination Index) [5, 10]: 1.316 | Fa (fraction affected) [5, 10]: 0.701 | CI (Combination Index) [5, 11]: 0.767 | Fa (fraction affected) [5, 11]: 0.906 | CI (Combination Index) [5, 12]: 0.023 | Fa (fraction affected) [5, 12]: 0.999 | CI (Combination Index) [6, 9]: 1.4 | Fa (fraction affected) [6, 9]: 0.048 | CI (Combination Index) [6, 10]: 1.5 | Fa (fraction affected) [6, 10]: 0.268 | CI (Combination Index) [6, 11]: 1.3 | Fa (fraction affected) [6, 11]: 0.883 | CI (Combination Index) [6, 12]: 0.8 | Fa (fraction affected) [6, 12]: 0.999 | CI (Combination Index) [7, 9]: 1.4 | Fa (fraction affected) [7, 9]: 0.317 | CI (Combination Index) [7, 10]: 2.3 | Fa (fraction affected) [7, 10]: 0.407 | CI (Combination Index) [7, 11]: 0.5 | Fa (fraction affected) [7, 11]: 0.976 | CI (Combination Index) [7, 12]: 0.3 | Fa (fraction affected) [7, 12]: 0.995 | CI [8, 9]: 1.1 | Fa [8, 9]: 0.202 | CI [8, 10]: 1.4 | Fa [8, 10]: 0.346 | CI [8, 11]: 1.1 | Fa [8, 11]: 0.719 | CI [8, 12]: 0.7 | Fa [8, 12]: 0.918

CCCCCCCCC[C@H](O)[C@@H](N)CO [C12]
CI [1, 9]: 0.9 | Fa [1, 9]: 0.232 | CI [1, 10]: 3.1 | Fa [1, 10]: 0.119 | CI [1, 11]: 0.7 | Fa [1, 11]: 0.757 | CI [1, 12]: 0.2 | Fa [1, 12]: 0.977 | CI (Combination Index) [2, 9]: 1.0 | Fa (fraction affected) [2, 9]: 0.217 | CI (Combination Index) [2, 10]: 1.2 | Fa (fraction affected) [2, 10]: 0.642 | CI (Combination Index) [2, 11]: 1.3 | Fa (fraction affected) [2, 11]: 0.951 | CI (Combination Index) [2, 12]: 1.6 | Fa (fraction affected) [2, 12]: 0.975 | CI (Combination Index) [3, 9]: 0.5 | Fa (fraction affected) [3, 9]: 0.133 | CI (Combination Index) [3, 10]: 0.7 | Fa (fraction affected) [3, 10]: 0.271 | CI (Combination Index) [3, 11]: 0.7 | Fa (fraction affected) [3, 11]: 0.930 | CI (Combination Index) [3, 12]: 0.9 | Fa (fraction affected) [3, 12]: 0.968 | CI (Combination Index) [4, 9]: 0.3 | Fa (fraction affected) [4, 9]: 0.244 | CI (Combination Index) [4, 10]: 0.6 | Fa (fraction affected) [4, 10]: 0.247 | CI (Combination Index) [4, 11]: 0.9 | Fa (fraction affected) [4, 11]: 0.518 | CI (Combination Index) [4, 12]: 1.0 | Fa (fraction affected) [4, 12]: 0.854 | CI (Combination Index) [5, 9]: 2.8 | Fa (fraction affected) [5, 9]: 0.306 | CI (Combination Index) [5, 10]: 3.6 | Fa (fraction affected) [5, 10]: 0.408 | CI (Combination Index) [5, 11]: 1.5 | Fa (fraction affected) [5, 11]: 0.781 | CI (Combination Index) [5, 12]: 0.2 | Fa (fraction affected) [5, 12]: 0.981 | CI (Combination Index) [6, 9]: 0.8 | Fa (fraction affected) [6, 9]: 0.176 | CI (Combination Index) [6, 10]: 0.9 | Fa (fraction affected) [6, 10]: 0.326 | CI (Combination Index) [6, 11]: 0.9 | Fa (fraction affected) [6, 11]: 0.697 | CI (Combination Index) [6, 12]: 1.2 | Fa (fraction affected) [6, 12]: 0.748 | CI (Combination Index) [7, 9]: 1.5 | Fa (fraction affected) [7, 9]: 0.226 | CI (Combination Index) [7, 10]: 1.0 | Fa (fraction affected) [7, 10]: 0.671 | CI (Combination Index) [7, 11]: 0.3 | Fa (fraction affected) [7, 11]: 0.988 | CI (Combination Index) [7, 12]: 0.2 | Fa (fraction affected) [7, 12]: 0.996 | CI [8, 9]: 0.5 | Fa [8, 9]: 0.245 | CI [8, 10]: 0.8 | Fa [8, 10]: 0.328 | CI [8, 11]: 0.9 | Fa [8, 11]: 0.526 | CI [8, 12]: 0.8 | Fa [8, 12]: 0.721
